The values that follow come from ChEMBL document CHEMBL1201862, “PubChem BioAssay data set” (2004).

Calls of active or inactive are those of the source.

Assay [1] deals with Voltage-gated N-type calcium channel alpha-1B subunit/Amyloid beta A4 precursor protein-binding family A member 1 (Homo sapiens, UniProt Q00975+Q02410). It counts as protein assay.
For assay [2], the target named is Tyrosine-protein kinase Lck (Homo sapiens, UniProt P06239). It counts as functional.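 Further: lck was assayed as one member of a kinase panel.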
Assay [3] concerns the target Tyrosine-protein kinase receptor TYRO3 (Homo sapiens, UniProt Q06418). It counts as functional.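 Further: TYRO3 value obtained as one member of a kinome-wide profiling panel.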
Assay [4] deals with 5'-AMP-activated protein kinase catalytic subunit alpha-1 (Homo sapiens, UniProt Q13131). Type of assay: functional.
Assay [5] has as its target Dual specificity mitogen-activated protein kinase kinase 1 (Homo sapiens, UniProt Q02750). As to the kind of experiment: Navigating the Kinome. Panel member name: MAP2K1. It counts as functional.

Voltage-gated N-type calcium channel alpha-1B subunit/Amyloid beta A4 precursor protein-binding family A member 1, sequence (Q00975 whole entry): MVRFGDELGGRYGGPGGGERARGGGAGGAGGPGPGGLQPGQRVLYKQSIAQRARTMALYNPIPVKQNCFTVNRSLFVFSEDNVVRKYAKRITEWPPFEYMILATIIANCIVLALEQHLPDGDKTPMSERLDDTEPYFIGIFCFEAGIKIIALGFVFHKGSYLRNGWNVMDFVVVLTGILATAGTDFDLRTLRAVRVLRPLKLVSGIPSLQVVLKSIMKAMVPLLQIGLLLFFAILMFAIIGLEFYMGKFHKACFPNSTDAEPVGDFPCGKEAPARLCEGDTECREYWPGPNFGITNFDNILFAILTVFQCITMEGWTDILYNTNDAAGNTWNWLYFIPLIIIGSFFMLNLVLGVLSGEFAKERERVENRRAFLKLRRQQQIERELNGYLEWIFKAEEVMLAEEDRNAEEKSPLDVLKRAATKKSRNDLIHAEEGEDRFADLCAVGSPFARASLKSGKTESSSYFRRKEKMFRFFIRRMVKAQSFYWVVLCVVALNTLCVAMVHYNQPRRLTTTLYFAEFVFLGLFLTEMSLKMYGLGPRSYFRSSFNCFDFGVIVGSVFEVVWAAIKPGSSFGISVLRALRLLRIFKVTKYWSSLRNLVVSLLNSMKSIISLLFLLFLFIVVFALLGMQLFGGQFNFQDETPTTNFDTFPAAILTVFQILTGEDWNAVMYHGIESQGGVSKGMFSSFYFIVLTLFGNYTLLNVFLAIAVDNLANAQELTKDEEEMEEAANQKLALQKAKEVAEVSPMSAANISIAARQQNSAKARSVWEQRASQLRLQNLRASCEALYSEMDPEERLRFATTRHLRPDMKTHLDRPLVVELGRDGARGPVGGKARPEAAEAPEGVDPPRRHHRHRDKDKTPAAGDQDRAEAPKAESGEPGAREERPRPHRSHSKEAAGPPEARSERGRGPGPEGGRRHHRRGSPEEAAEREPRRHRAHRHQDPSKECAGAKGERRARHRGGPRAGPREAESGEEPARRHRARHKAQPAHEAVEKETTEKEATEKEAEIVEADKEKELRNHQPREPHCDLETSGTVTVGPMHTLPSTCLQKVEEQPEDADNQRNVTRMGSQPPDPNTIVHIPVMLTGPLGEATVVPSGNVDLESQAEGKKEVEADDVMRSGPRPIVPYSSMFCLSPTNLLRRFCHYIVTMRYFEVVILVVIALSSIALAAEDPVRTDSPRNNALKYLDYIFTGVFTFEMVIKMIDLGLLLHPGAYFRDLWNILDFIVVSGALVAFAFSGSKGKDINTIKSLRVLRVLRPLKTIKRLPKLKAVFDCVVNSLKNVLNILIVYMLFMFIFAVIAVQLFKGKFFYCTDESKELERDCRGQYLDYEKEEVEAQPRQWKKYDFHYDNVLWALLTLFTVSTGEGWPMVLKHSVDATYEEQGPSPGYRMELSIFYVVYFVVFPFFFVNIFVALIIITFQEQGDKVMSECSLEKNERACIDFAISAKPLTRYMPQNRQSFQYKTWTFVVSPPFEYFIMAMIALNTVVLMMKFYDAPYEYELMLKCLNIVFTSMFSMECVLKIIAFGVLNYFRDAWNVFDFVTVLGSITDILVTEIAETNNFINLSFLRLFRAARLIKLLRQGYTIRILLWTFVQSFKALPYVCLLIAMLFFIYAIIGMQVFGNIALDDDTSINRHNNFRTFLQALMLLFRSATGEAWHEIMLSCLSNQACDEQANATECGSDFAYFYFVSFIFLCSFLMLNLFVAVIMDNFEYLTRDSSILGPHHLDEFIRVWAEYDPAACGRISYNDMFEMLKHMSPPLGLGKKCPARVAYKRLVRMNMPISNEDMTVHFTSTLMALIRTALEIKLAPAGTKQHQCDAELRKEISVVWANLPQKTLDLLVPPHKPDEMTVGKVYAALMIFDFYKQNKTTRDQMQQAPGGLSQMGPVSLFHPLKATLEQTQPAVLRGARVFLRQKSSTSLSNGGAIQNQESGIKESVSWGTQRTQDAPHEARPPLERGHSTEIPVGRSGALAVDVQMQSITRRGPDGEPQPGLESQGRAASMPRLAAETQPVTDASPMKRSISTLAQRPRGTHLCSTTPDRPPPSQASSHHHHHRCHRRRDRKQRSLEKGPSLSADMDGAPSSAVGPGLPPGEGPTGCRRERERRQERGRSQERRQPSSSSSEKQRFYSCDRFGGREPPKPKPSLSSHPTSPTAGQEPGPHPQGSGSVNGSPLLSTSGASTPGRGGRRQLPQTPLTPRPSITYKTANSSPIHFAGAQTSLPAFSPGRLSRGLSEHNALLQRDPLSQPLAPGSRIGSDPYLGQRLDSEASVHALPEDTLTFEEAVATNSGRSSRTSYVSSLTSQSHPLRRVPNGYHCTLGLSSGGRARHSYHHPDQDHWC
Voltage-gated N-type calcium channel alpha-1B subunit/Amyloid beta A4 precursor protein-binding family A member 1, sequence (Q02410 whole entry): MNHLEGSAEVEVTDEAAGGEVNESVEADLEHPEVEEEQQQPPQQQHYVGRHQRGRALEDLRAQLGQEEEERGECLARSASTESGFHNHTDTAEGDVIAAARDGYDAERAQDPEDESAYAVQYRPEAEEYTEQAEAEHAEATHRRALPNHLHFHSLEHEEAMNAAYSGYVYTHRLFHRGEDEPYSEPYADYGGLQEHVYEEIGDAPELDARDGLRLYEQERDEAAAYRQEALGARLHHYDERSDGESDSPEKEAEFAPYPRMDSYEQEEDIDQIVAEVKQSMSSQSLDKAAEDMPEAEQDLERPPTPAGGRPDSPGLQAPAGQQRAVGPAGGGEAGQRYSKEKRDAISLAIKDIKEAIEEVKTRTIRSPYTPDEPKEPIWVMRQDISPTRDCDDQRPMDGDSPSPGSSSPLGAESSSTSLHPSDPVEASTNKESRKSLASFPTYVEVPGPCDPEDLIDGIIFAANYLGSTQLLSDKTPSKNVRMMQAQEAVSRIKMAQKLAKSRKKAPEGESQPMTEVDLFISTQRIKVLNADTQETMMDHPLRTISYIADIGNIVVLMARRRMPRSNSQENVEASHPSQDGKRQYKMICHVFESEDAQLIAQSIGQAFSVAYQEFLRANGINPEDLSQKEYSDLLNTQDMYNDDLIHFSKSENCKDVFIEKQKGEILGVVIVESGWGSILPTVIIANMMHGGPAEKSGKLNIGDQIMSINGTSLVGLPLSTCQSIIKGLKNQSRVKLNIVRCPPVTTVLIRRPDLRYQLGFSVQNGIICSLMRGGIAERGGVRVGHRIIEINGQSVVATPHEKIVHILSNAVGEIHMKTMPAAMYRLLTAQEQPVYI
5'-AMP-activated protein kinase catalytic subunit alpha-1, sequence (Q13131 whole entry): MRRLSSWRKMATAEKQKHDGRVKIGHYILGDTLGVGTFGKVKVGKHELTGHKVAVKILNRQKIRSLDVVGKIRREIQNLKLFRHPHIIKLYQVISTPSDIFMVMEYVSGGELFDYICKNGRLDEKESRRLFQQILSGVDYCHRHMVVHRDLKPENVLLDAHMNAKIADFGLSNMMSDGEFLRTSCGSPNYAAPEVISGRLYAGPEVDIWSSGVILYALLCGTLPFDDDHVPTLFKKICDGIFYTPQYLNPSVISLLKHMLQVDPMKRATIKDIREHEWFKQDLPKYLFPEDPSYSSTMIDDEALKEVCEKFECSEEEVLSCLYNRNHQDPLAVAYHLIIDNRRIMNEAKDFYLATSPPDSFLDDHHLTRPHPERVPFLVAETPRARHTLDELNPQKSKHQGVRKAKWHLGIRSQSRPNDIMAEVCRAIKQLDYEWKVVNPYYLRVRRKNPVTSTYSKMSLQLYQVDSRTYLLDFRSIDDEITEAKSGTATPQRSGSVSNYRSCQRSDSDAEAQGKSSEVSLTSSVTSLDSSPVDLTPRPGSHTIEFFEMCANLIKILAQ
Dual specificity mitogen-activated protein kinase kinase 1, sequence (Q02750 whole entry): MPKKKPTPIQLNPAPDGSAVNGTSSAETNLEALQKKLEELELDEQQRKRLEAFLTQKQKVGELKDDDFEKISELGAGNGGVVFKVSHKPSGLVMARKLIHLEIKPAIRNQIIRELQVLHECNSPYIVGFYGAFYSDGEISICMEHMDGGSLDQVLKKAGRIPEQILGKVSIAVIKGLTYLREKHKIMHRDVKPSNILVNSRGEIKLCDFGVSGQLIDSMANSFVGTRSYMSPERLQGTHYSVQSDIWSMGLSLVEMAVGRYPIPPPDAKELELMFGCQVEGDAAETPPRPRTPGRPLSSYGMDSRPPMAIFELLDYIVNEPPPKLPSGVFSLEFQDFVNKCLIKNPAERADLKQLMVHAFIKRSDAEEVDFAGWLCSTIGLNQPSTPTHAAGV
Tyrosine-protein kinase Lck, sequence (P06239 whole entry): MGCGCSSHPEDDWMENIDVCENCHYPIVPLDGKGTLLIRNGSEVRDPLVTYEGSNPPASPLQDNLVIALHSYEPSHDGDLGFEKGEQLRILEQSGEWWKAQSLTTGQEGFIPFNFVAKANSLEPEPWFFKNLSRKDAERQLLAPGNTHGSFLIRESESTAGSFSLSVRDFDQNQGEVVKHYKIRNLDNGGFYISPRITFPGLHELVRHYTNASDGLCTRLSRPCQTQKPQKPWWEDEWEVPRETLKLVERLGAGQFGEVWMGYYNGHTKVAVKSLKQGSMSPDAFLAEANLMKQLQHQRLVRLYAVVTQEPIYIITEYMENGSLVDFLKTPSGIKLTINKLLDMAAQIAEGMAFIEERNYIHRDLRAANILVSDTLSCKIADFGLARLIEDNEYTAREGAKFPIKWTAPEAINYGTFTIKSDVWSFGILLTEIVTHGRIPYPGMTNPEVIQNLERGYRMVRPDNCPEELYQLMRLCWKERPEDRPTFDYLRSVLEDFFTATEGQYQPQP

As to `CC(=O)N(C1=C(Cl)C(=O)c2ccccc2C1=O)c1ccc(C(=O)O)cc1`, the IC50 (usually the point on the concentration scale where inhibition reaches its midpoint) in assay [1] is 3.35 µM (active).

Turning to `Cc1ccc(-c2cc3nc(Br)cnc3[nH]2)cc1`, the Ki – broadly, a measure of affinity in units of concentration, obtained from inhibition or displacement – in assay [2] was > 6.31 µM (inactive); in assay [3] it was > 3.16 µM (inactive); in assay [4], 3.16 µM (active); in assay [5], > 3.16 µM (inactive).
